According to PubChem BioAssay (NCI):
“And” between values parts separate entries of the source, which are not always exact repeats. Identical values can stand only once.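 In this assay, cells in 96-well plates receive the compound at five concentrations for 48 hours. Endpoints are linearly interpolated between the surrounding concentrations. GI50 marks 50% less growth. TGI: total growth inhibition.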

Columns and labels:
Experiment in all cases: DTP human tumour cell line panel, 48 h
[1] = tested on: MDA-N
[2] = tested on: LXFL 529 NSCLC
[3] = tested on: DMS 114 small cell lung
[4] = tested on: KM20L2 colon
[5] = tested on: RXF-631 renal
[6] = tested on: XF 498 CNS
[7] = tested on: DLD-1 colon
[8] = tested on: HOP-18 NSCLC
[9] = tested on: DMS 273 small cell lung

OC(C1=C/C(=C\c2ccncc2)c2ccccc21)c1ccncc1 (configuration not stated)
TGI [1]: 30.4 µM

CN(C)CC(/C(Cc1ccccc1)=N\NC(=O)c1ccncc1)c1ccccc1 (configuration not stated)
TGI [2]: > 100 µM
TGI [3]: 81.8 µM
TGI [4]: 92.3 µM
TGI [5]: > 100 µM
TGI [6]: > 100 µM
TGI [7]: > 100 µM

N/N=C(\CC1OC(=O)c2ccccc21)c1ccco1 (configuration not stated)
TGI [2]: > 100 µM
TGI [3]: > 100 µM
TGI [4]: > 100 µM
TGI [8]: 0.343 µM
TGI [7]: > 100 µM
TGI [9]: > 100 µM

CC1(CO)OC1COCc1ccccc1 (configuration not stated)
TGI [2]: > 100 µM
TGI [3]: > 100 µM
TGI [4]: > 100 µM
TGI [5]: > 100 µM
TGI [6]: > 100 µM
TGI [7]: > 100 µM
TGI [9]: > 100 µM

c1cc2c(cc1C(N1CCNCC1)N1CCNCC1)OCO2
TGI [1]: > 100 µM

CC1Cc2c(N)nc(NN)nc2NC1=O (configuration not stated)
TGI [3]: > 100 µM
TGI [4]: > 100 µM
TGI [8]: > 100 µM
TGI [6]: > 100 µM
TGI [7]: > 100 µM
TGI [9]: > 100 µM

CC(=O)OCSc1ncnc2c1ncn2CN1CCOCC1
TGI [2]: > 100 µM
TGI [3]: > 100 µM
TGI [4]: > 100 µM
TGI [8]: > 100 µM
TGI [7]: > 100 µM
TGI [9]: > 100 µM

O=C(O)c1c2c(c(C(=O)O)c3ccccc13)-c1ccccc1-2
TGI [2]: > 100 µM
TGI [3]: > 100 µM
TGI [4]: > 100 µM
TGI [8]: 83.9 µM
TGI [6]: > 100 µM
TGI [7]: > 100 µM
TGI [9]: > 100 µM

COc1ccc(C2S/C(=C\c3cc(OC)c(OC)c(OC)c3)C(=O)N2NC(=O)Cc2ccccc2)cc1 (configuration not stated)
TGI [2]: > 100 µM
TGI [3]: > 100 µM
TGI [8]: > 100 µM
TGI [7]: > 100 µM
TGI [9]: > 100 µM

COc1ccc(C(=O)C(c2ccc(OC)cc2)C2(O)C(=O)Nc3c(C)cc(Cl)cc32)cc1 (configuration not stated)
TGI [2]: > 100 µM
TGI [4]: > 100 µM
TGI [5]: > 100 µM
TGI [7]: > 100 µM
TGI [9]: > 100 µM

O=[N+]([O-])c1ccc(Sc2c3ccccc3nc3ccccc23)cc1
TGI [2]: > 100 µM
TGI [4]: > 100 µM
TGI [5]: > 100 µM
TGI [8]: > 100 µM
TGI [6]: > 100 µM
TGI [7]: > 100 µM

N#Cc1ccccc1NC(=O)/C(=N\NC(=O)c1ccncc1)C(c1cnc2ccc([N+](=O)[O-])cc2n1)[N+](=O)[O-] (configuration not stated)
TGI [1]: > 100 µM

Cc1cccc(C)c1NC(=O)CCCC(=O)CC(=O)/C=C/c1ccccc1
TGI [2]: > 100 µM
TGI [3]: > 100 µM
TGI [4]: > 100 µM
TGI [5]: > 100 µM
TGI [8]: > 100 µM
TGI [6]: > 100 µM
TGI [7]: > 100 µM
TGI [9]: > 100 µM

COC1/C=C\C=C(/C)C(=O)Nc2cc3nc4ccc(Br)cc4oc-3c(c2=O)CC(C)CC(OC)C(O)C(C)/C=C(\C)C1OC(N)=O (configuration not stated)
TGI [2]: 9.42 µM
TGI [3]: 5.34 µM
TGI [4]: 3.65 µM
TGI [8]: 17.3 µM
TGI [6]: 0.466 µM
GI50 [1]: 0.0124 µM
TGI [1]: 1.27 µM
TGI [7]: 8.29 µM
TGI [9]: 4.19 µM

c1ccc(C(=NNc2nc3ccccc3o2)c2ccccn2)nc1
TGI [1]: 25.9 µM

CCOC(=O)/C(=C\c1ccc(OCc2ccccc2)c(OC)c1)C(=O)c1ccccc1
TGI [3]: 41.4 µM
TGI [4]: 34.3 µM
TGI [6]: 32.3 µM

OCC(O)C(O)C(O)C1SC(c2ccccc2)=NN1c1ccccc1 (configuration not stated)
TGI [2]: > 100 µM
TGI [3]: > 100 µM
TGI [4]: > 100 µM
TGI [5]: > 100 µM
TGI [8]: > 100 µM
TGI [6]: > 78.1 µM
TGI [1]: > 100 µM
TGI [7]: > 100 µM
TGI [9]: > 100 µM

O=C(CNC(=O)OCc1ccccc1)Oc1ccccc1
TGI [2]: > 100 µM
TGI [3]: > 100 µM
TGI [4]: > 100 µM
TGI [8]: > 100 µM
TGI [6]: > 100 µM
TGI [7]: > 100 µM
TGI [9]: > 100 µM

CC(C)=CC(=O)Oc1ccc([N+](=O)[O-])cc1
TGI [2]: > 100 µM
TGI [3]: > 100 µM
TGI [4]: > 100 µM
TGI [8]: > 100 µM
TGI [6]: > 100 µM
TGI [7]: > 100 µM
TGI [9]: > 100 µM

CCOc1cc2c(cnc3c4cc(OC)c(OC)cc4ccc23)cc1OC
TGI [2]: > 100 µM
TGI [3]: > 100 µM
TGI [4]: > 100 µM
TGI [6]: > 100 µM
TGI [7]: > 100 µM

COC1/C(=C\C(=O)OC(C)(C)C)c2ccccc2N1C(C)=O (configuration not stated)
TGI [2]: > 100 µM
TGI [3]: > 100 µM
TGI [4]: > 100 µM
TGI [5]: > 100 µM
TGI [8]: > 100 µM
TGI [6]: > 100 µM
TGI [7]: > 100 µM
TGI [9]: > 100 µM

CC(=O)OCC1OC(OC2CC3C(C)(C)C(OC(C)=O)CC[C@]3(C)C3CCC45CC4(CC[C@H]5C(C)CC(O)[C@@H](O)C(C)(C)O)[C@]23C)C(O)C(O)C1O (some centres not stated)
GI50 [2]: 4.65 µM
TGI [2]: 11.3 µM and 16.2 µM
TGI [4]: 14.4 µM and 21.6 µM
GI50 [8]: 5.43 µM
TGI [8]: 15 µM and 17.3 µM
TGI [6]: 33.9 µM
GI50 [7]: 10.4 µM
TGI [7]: 13.7 µM and 23.2 µM
TGI [9]: 13.8 µM and 20.3 µM

N#CCc1ccc(C(C#N)/C(CCCC(=O)Nc2cccc([N+](=O)[O-])c2)=N\NC(=O)NN)cc1 (configuration not stated)
TGI [2]: > 100 µM
TGI [3]: > 100 µM
TGI [4]: > 100 µM
TGI [8]: > 100 µM
TGI [7]: > 100 µM
TGI [9]: > 100 µM

COc1ccc2c([nH]c3cc(O)c(C)cc32)c1C=O
TGI [2]: > 25 µM
TGI [3]: > 25 µM
TGI [4]: > 25 µM
TGI [6]: > 25 µM
TGI [7]: > 25 µM
TGI [9]: > 25 µM

CC(=O)NC1=C(Nc2ccc(C)cc2)C(=O)c2ccccc2C1=O
TGI [2]: > 75 µM
TGI [3]: 38.4 µM
TGI [4]: > 75 µM
TGI [8]: 28.5 µM
TGI [6]: 73.1 µM
TGI [7]: > 75 µM
TGI [9]: 61 µM

C=C(Cl)COC(=O)Nc1cccc(Cl)c1
TGI [1]: > 100 µM

O=C1CCCCCCCCCCC(=O)C2CCOCCOCCOCCC1Cc1cccc(n1)C2
TGI [2]: > 100 µM
TGI [3]: > 100 µM
TGI [4]: > 100 µM
TGI [5]: > 100 µM
TGI [6]: > 100 µM
TGI [7]: > 100 µM
TGI [9]: > 100 µM

CN(NC(=O)CC(=O)NN(C)C(=S)c1ccccc1)C(=S)c1ccccc1
TGI [1]: > 100 µM

CCCCCCCCCCC(C)CCCCCCC(=O)OCC(COP(=O)([O-])OCC[N+](C)(C)C)OC(=O)CCCCCCC(C)CCCCCCCCCC (configuration not stated)
TGI [2]: > 100 µM
TGI [3]: > 100 µM
TGI [4]: > 100 µM
TGI [5]: > 100 µM
TGI [8]: > 100 µM
TGI [7]: > 100 µM
TGI [9]: > 100 µM

COc1cc2c(c(OC)c1OC)-c1ccc(SC)c(=O)cc1[C@@H](NC(=O)c1ccc(OC(C)=O)cc1)CC2
GI50 [3]: 0.0144 µM
TGI [3]: 0.0336 µM
TGI [4]: 0.0358 µM
TGI [5]: 18.1 µM
TGI [6]: 0.0597 µM
TGI [7]: 28.8 µM
TGI [9]: > 100 µM

C1CNCCNCCNCCN1
TGI [2]: > 100 µM
TGI [3]: > 100 µM
TGI [4]: > 100 µM
TGI [8]: > 100 µM
TGI [7]: > 100 µM
TGI [9]: > 100 µM

Clc1ccc(-n2nnc(C3=NCCCN3)c2-c2ccccc2)cc1
TGI [2]: > 100 µM
TGI [3]: > 100 µM
TGI [4]: > 100 µM
TGI [8]: > 100 µM
TGI [6]: > 100 µM
TGI [7]: > 100 µM
TGI [9]: > 100 µM

CC1(C)COCN1COC1CCCCC1
TGI [1]: > 100 µM

O=C1/C(=C/c2ccc(O)c([N+](=O)[O-])c2)CCC/C1=C\c1ccc(O)c([N+](=O)[O-])c1
GI50 [1]: 25.9 µM
TGI [1]: 19.9 µM and > 100 µM

C=CC[C@H]1C[C@@]2(C)OC[C@H](C(C)C)N2C1=O
TGI [4]: > 100 µM
TGI [8]: > 100 µM
TGI [6]: > 100 µM
TGI [9]: > 100 µM

c1nc2cscc2c2cscc12
TGI [2]: > 100 µM
TGI [3]: > 100 µM
TGI [6]: > 100 µM
TGI [9]: > 100 µM

O=C(/C=C/C=C/c1ccccc1)CCc1ccccc1
TGI [1]: > 100 µM

S=c1[nH]c(=S)c2sc(=S)n(-c3ccccc3)c2[nH]1
TGI [2]: > 100 µM
TGI [3]: > 100 µM
TGI [4]: > 100 µM
TGI [8]: > 100 µM
TGI [6]: > 100 µM
TGI [7]: > 100 µM
TGI [9]: > 100 µM

COc1ccc(/C=C\c2cc(OC)c(OC)c(OC)c2)cc1OC(=O)C(N)CCC(=O)O (configuration not stated)
GI50 [4]: 1.51 µM
TGI [4]: 9.55 µM
TGI [6]: 0.0491 µM
GI50 [1]: 0.000204 µM
TGI [7]: > 100 µM

CC(=O)[CH-]C(=O)c1ccccc1.CC(=O)[CH-]C(=O)c1ccccc1.CC(=O)[CH-]C(=O)c1ccccc1.[Tl+3]
GI50 [2]: 56.2 µM
TGI [2]: > 100 µM
GI50 [4]: 45.6 µM
TGI [4]: > 100 µM
GI50 [8]: > 100 µM
TGI [8]: > 100 µM
GI50 [7]: 22.2 µM
TGI [7]: > 100 µM

Cc1nc2c(=O)[nH]c(=O)n(C)c2[nH]c1=O
TGI [2]: > 100 µM
TGI [4]: > 100 µM
TGI [7]: > 100 µM
TGI [9]: > 100 µM

Cc1cccc(C)c1NC(=O)/C(Cl)=C(/Cl)C(=O)O
TGI [2]: 15.2 µM
TGI [3]: 43.2 µM
TGI [4]: 20.8 µM
TGI [8]: 38.2 µM
TGI [6]: 28.6 µM
TGI [1]: 36.8 µM
TGI [7]: 17.8 µM
TGI [9]: 35.9 µM
